From patent US20090209633A1, “Treatment of Pain With Resiniferatoxin and Related Analogs” (priority 2006, published 2009) come the findings set out here.

Molecules are shown by their SMILES.

This assay deals with DRG neurons. Description: Membrane depolarization and action potentials in DRG neurons (current clamp). It counts as cell-based, rat. As for the experimental part: Primary DRG neuronal cultures were prepared from embryonic day 18 (E18) rat embryos. Adult pregnant rats were killed with an overdose of isoflurane. DRG were dissected and the cells were dissociated by triturating with a fire-polished glass pipette. Cells were cultured in Neurobasal medium (Life Technologies, Buffalo, N.Y., USA), supplemented with 10% fetal bovine serum (FBS), and grown on poly-D-lysine-coated glass coverslips. Cells were used from 5 to 15 days after plating. Small diameter (<30 μm) rounded neurons were selected for patch-clamp experiments. […] The Giga-seal patch-clamp technique was used to record whole-cell currents. For perforated-patch recordings, the bath solution contained (mM): sodium gluconate 140, KCl 2.5, Hepes 10, MgCl2 1 and ethylene glycol bis(2-aminoethyl ether)-N,N,N′N′-tetraacetic acid (EGTA) 1.5 (pH adjusted to 7.35 with NaOH), and the pipette solution contained (mM): sodium gluconate 130, NaCl 10, KCl 2.5, Hepes 10, MgCl2 1, EGTA 1.5 and 240 μg/ml^−1 amphotericin B (pH adjusted to 7.35 with NaOH). For current-clamp experiments the pipette solution contained (mM): potassium gluconate 130, NaCl 10, MgCl2 1, EGTA 0.2, K2ATP 1 and Hepes 10; pH adjusted to 7.35 with NaOH. Extracellular solution for current- and voltage-clamp experiments contained (mM): NaCl 140, KCl 4, MgCl2 1 and Hepes 10; pH adjusted to 7.35 with NaOH. Currents were recorded using a WPC 100 patch-clamp amplifier (E.S.F. Electronic, Goettingan, Germany). Data were filtered at 10 kHz, digitized (VR-10B, Instrutech Corp., Great Neck, N.Y., USA) and stored on videotapes or directly stored in the computer using a LabView interface. For analysis of whole-cell currents, data were filtered at 1 kHz (−3 db frequency with an 8-pole low-pass Bessel filter, Warner Instruments, LPF-8) and digitized at 2 kHz.
To attribute a physiological significance to the slow and irreversible action of RTX, we recorded membrane depolarization in current-clamp conditions. Action potentials in response to a current injection (10-100 pA) were recorded in order to confirm that the neurons were excitable (inset to FIGS. 9A and B). The average membrane potential was −57.1±1 mV (n=42).

Regarding `C=C(C)[C@]12C[C@@H](C)[C@@]34O[C@](Cc5ccccc5)(O[C@@H]1[C@@H]3C=C(COC(=O)Cc1ccc(O)c(OC)c1)C[C@]1(O)C(=O)C(C)=C[C@@H]41)O2` [RTX, resiniferatoxin], the membrane depolarization is recorded as 10.6±1.6 mV (RTX 3 pM); 32.2±5.1 mV (RTX 10 nM); 52±2 mV (RTX 1 μM); 14.1±1.5 mV (RTX 10 μM (so in the source)); 16.3±3 mV (RTX 100 μM (so in the source)). In addition, the “number of action potentials” value (RTX 3 pM) was found to be 16.6±8.3; the “number of action potentials” value (RTX 10 pM) is on record as 24.6±6.9; the “number of action potentials” value (RTX 10 nM) is 24.5±8.6; the “number of action potentials” value (RTX 1 μM) was 14.6±4.6; the “number of action potentials” value (RTX ˜100 pM) was determined as 77.8±11.8.
For `COc1cc(CNC(=O)CCCC/C=C/C(C)C)ccc1O` [capsaicin], for the setting “capsaicin 30 nM”, the membrane depolarization is reported as 13.3±3.5 mV and the “number of action potentials” value is on record as 54.2±10.5.
